Columns and labels:
Format in all cases: in vivo
IFN-γ = IFN-γ levels in sera upon i.v. glycolipid administration to C57BL/6 mice (ELISA); design: IFN-γ levels, test 1 / IFN-γ levels, test 2 / IFN-γ levels, average / IFN-γ levels, Total / IFN-γ (B6): unit not given here
Method in brief: (§1)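 Female C57BL/6 or BALB/c mice (5–6 weeks old) received 1 μg glycolipid i.v. in PBS. Sera were collected at 0, 2, 6, 12, 24, 48 and 72 h post-dose. Cytokine levels were quantified by sandwich ELISA on 1:10-diluted sera, with A450 read against known standards.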

IL-12 = IL-12 levels in sera upon i.v. glycolipid administration to C57BL/6 mice (ELISA); design: IL-12 levels, test 1 / IL-12 levels, test 2 / IL-12 levels, average / IL-12 levels, Total: unit not given here
Method in brief: as §1

IL-4 [1] = experiment: IL-4 levels in sera upon i.v. glycolipid administration to BALB/c mice (ELISA); design: unit not given here
Method in brief: as §1

IL-4 [2] = experiment: IL-4 levels in sera upon i.v. glycolipid administration to C57BL/6 mice (ELISA); design: unit not given here
Method in brief: as §1

[3] = C57BL/6, ratio calculated from Tables 1-6
[4] = C57BL/6, serum, total over hours 0-72

In the case of `CCCCCCCCCCCCCCCCCCCCCCCCCC(=O)N[C@@H](CC[C@H]1O[C@H](CO)[C@H](O)[C@H](O)[C@H]1O)[C@H](O)[C@H](O)CCCCCCCCCCCCCC` [CRONY, reference compound], the “IFN-γ/IL-4 (B6)” value (IFN-γ; [3]) is reported as 17, the “IFN-γ levels, average” value (IFN-γ; C57BL/6, serum, hour 0) is reported as 31 and the “IFN-γ levels, test 1” value (IFN-γ; C57BL/6, serum, hour 0) is reported as 31. For the same molecule, the “IFN-γ levels, test 2” value (IFN-γ; C57BL/6, serum, hour 0) was 31, the “IFN-γ levels, average” value (IFN-γ; C57BL/6, serum, hour 2) was 355.5 and the “IFN-γ levels, test 1” value (IFN-γ; C57BL/6, serum, hour 2) was 359. The “IFN-γ levels, test 2” value (IFN-γ; C57BL/6, serum, hour 2) was 352, the “IFN-γ levels, average” value (IFN-γ; C57BL/6, serum, hour 6) was 1094.5 and the “IFN-γ levels, test 1” value (IFN-γ; C57BL/6, serum, hour 6) was 1083. For the same molecule, the “IFN-γ levels, test 2” value (IFN-γ; C57BL/6, serum, hour 6) was 1106, the “IFN-γ levels, average” value (IFN-γ; C57BL/6, serum, hour 12) was 2512.5 and the “IFN-γ levels, test 1” value (IFN-γ; C57BL/6, serum, hour 12) was 2667. The “IFN-γ levels, test 2” value (IFN-γ; C57BL/6, serum, hour 12) was 2358, the “IFN-γ levels, average” value (IFN-γ; C57BL/6, serum, hour 24) was 6589.5 and the “IFN-γ levels, test 1” value (IFN-γ; C57BL/6, serum, hour 24) was 6511. For the same molecule, the “IFN-γ levels, test 2” value (IFN-γ; C57BL/6, serum, hour 24) was 6668, the “IFN-γ levels, average” value (IFN-γ; C57BL/6, serum, hour 48) was 777.5 and the “IFN-γ levels, test 1” value (IFN-γ; C57BL/6, serum, hour 48) was 798. The “IFN-γ levels, test 2” value (IFN-γ; C57BL/6, serum, hour 48) was 757, the “IFN-γ levels, average” value (IFN-γ; C57BL/6, serum, hour 72) was 290 and the “IFN-γ levels, test 1” value (IFN-γ; C57BL/6, serum, hour 72) was 279. The “IFN-γ levels, test 2” value (IFN-γ; C57BL/6, serum, hour 72) was 301, the “IFN-γ levels, Total” value (IFN-γ; [4]) was 11653 and the “IFN-γ (B6)” value (IFN-γ; C57BL/6, total from Table 2) was 11652. The “IL-12/IL-4 (B6)” value (IL-12; [3]) was 2, the “IL-12 levels, average” value (IL-12; C57BL/6, serum, hour 0) was 5 and the “IL-12 levels, test 1” value (IL-12; C57BL/6, serum, hour 0) was 5. For the same molecule, the “IL-12 levels, test 2” value (IL-12; C57BL/6, serum, hour 0) was 5, the “IL-12 levels, average” value (IL-12; C57BL/6, serum, hour 2) was 107 and the “IL-12 levels, test 1” value (IL-12; C57BL/6, serum, hour 2) was 0. For the same molecule, the “IL-12 levels, test 2” value (IL-12; C57BL/6, serum, hour 2) was 214, the “IL-12 levels, average” value (IL-12; C57BL/6, serum, hour 6) was 472.5 and the “IL-12 levels, test 1” value (IL-12; C57BL/6, serum, hour 6) was 560. The “IL-12 levels, test 2” value (IL-12; C57BL/6, serum, hour 6) was 385, the “IL-12 levels, average” value (IL-12; C57BL/6, serum, hour 12) was 675.5 and the “IL-12 levels, test 1” value (IL-12; C57BL/6, serum, hour 12) was 630. The “IL-12 levels, test 2” value (IL-12; C57BL/6, serum, hour 12) was 721, the “IL-12 levels, average” value (IL-12; C57BL/6, serum, hour 24) was 117.5 and the “IL-12 levels, test 1” value (IL-12; C57BL/6, serum, hour 24) was 235. For the same molecule, the “IL-12 levels, test 2” value (IL-12; C57BL/6, serum, hour 24) was 0, the “IL-12 levels, average” value (IL-12; C57BL/6, serum, hour 48) was 0 and the “IL-12 levels, test 1” value (IL-12; C57BL/6, serum, hour 48) was 0. For the same molecule, the “IL-12 levels, test 2” value (IL-12; C57BL/6, serum, hour 48) was 0, the “IL-12 levels, average” value (IL-12; C57BL/6, serum, hour 72) was 0 and the “IL-12 levels, test 1” value (IL-12; C57BL/6, serum, hour 72) was 0. The “IL-12 levels, test 2” value (IL-12; C57BL/6, serum, hour 72) was 0, the “IL-12 levels, Total” value (IL-12; [4]) was 1379 and the “IL-4 level, average” value (IL-4 [1]; hour 0) was 27. For the same molecule, the “IL-4 level, test 1” value (IL-4 [1]; hour 0) was 27, the “IL-4 level, test 2” value (IL-4 [1]; hour 0) was 27 and the “IL-4 level, average” value (IL-4 [1]; hour 2) was 262.5. For the same molecule, the “IL-4 level, test 1” value (IL-4 [1]; hour 2) was 264, the “IL-4 level, test 2” value (IL-4 [1]; hour 2) was 261 and the “IL-4 level, average” value (IL-4 [1]; hour 6) was 87. For the same molecule, the “IL-4 level, test 1” value (IL-4 [1]; hour 6) was 80, the “IL-4 level, test 2” value (IL-4 [1]; hour 6) was 94 and the “IL-4 level, average” value (IL-4 [1]; hour 12) was 49. The “IL-4 level, test 1” value (IL-4 [1]; hour 12) was 45, the “IL-4 level, test 2” value (IL-4 [1]; hour 12) was 53 and the “IL-4 level, average” value (IL-4 [1]; hour 24) was 47.5. The “IL-4 level, test 1” value (IL-4 [1]; hour 24) was 49, the “IL-4 level, test 2” value (IL-4 [1]; hour 24) was 46 and the “IL-4 level, average” value (IL-4 [1]; hour 48) was 46.5. For the same molecule, the “IL-4 level, test 1” value (IL-4 [1]; hour 48) was 45, the “IL-4 level, test 2” value (IL-4 [1]; hour 48) was 48 and the “IL-4 level, average” value (IL-4 [1]; hour 72) was 67. The “IL-4 level, test 1” value (IL-4 [1]; hour 72) was 67, the “IL-4 level, test 2” value (IL-4 [1]; hour 72) was 67 and the “IL-4 level, Total” value (IL-4 [1]; total over hours 0-72) was 588. The “IL-4 level, average” value (IL-4 [2]; hour 0) was 46, the “IL-4 level, test 1” value (IL-4 [2]; hour 0) was 46 and the “IL-4 level, test 2” value (IL-4 [2]; hour 0) was 46. The “IL-4 level, average” value (IL-4 [2]; hour 2) was 464, the “IL-4 level, test 1” value (IL-4 [2]; hour 2) was 286 and the “IL-4 level, test 2” value (IL-4 [2]; hour 2) was 642. For the same molecule, the “IL-4 level, average” value (IL-4 [2]; hour 6) was 73, the “IL-4 level, test 1” value (IL-4 [2]; hour 6) was 48 and the “IL-4 level, test 2” value (IL-4 [2]; hour 6) was 98. For the same molecule, the “IL-4 level, average” value (IL-4 [2]; hour 12) was 34, the “IL-4 level, test 1” value (IL-4 [2]; hour 12) was 12 and the “IL-4 level, test 2” value (IL-4 [2]; hour 12) was 56. For the same molecule, the “IL-4 level, average” value (IL-4 [2]; hour 24) was 23, the “IL-4 level, test 1” value (IL-4 [2]; hour 24) was 16 and the “IL-4 level, test 2” value (IL-4 [2]; hour 24) was 30. The “IL-4 level, average” value (IL-4 [2]; hour 48) was 11.5, the “IL-4 level, test 1” value (IL-4 [2]; hour 48) was 17 and the “IL-4 level, test 2” value (IL-4 [2]; hour 48) was 6. For the same molecule, the “IL-4 level, average” value (IL-4 [2]; hour 72) was 21.5, the “IL-4 level, test 1” value (IL-4 [2]; hour 72) was 15 and the “IL-4 level, test 2” value (IL-4 [2]; hour 72) was 28. For the same molecule, the “IL-4 level, Total” value (IL-4 [2]; total over hours 0-72) was 674.

Source: patent publication US8883745B2, “C—glycolipids with enhanced Th-1 profile” (New York University, priority 2006, dated 2014)
